Each structure is given as a SMILES string.

Results on nine molecules are retold here after publication PMC9179928 (Journal of medicinal chemistry, 2021).

The test system of experiment [1] is EV-D68 US/KY/14-18953. Description: CPE assay, EV-D68 US/KY/14-18953 in RD cells. It counts as cell-based, enterovirus D68. The conditions noted are these: vs 7a.
Experiment [2] has as its system EV-A71 2C protein. The format is binding. The following applies: 7d at 10, 30, 100 and 300 μM.
In experiment [3] the test system is EV-D68 2C-D183V mutant. It counts as binding. The following applies: 7d at 100 μM.
In experiment [4] the test system is EV-D68 and EV-A71 strains. Description: organism not typed. The following applies: for EC50: RD, read-out: EC50 values against all EV-D68 and EV-A71 strains tested; for selectivity index over all EV-D68 and EV-A71 strains tested: strains of Table 2, RD cells. The format is cell-based.
For experiment [5], the system named is EV-D68 2C-D323G mutant. The format is binding. The conditions noted are these: 7d at 100 μM.
For experiment [6], the target named is CVB3 2C protein (Coxsackievirus B3, UniProt P03313). It counts as binding. The following applies: 7d at 10, 30, 100 and 300 μM.
In experiment [7] the test system is EV-D68 2C-D183V/D323G double mutant. The format is binding. The following applies: 7d at 100 μM.
Experiment [8] deals with EV-D68 US/MO/14-18947. Description: Plaque assay, EV-D68 US/MO/14-18947 in RD cells. The format is cell-based, enterovirus D68. The conditions noted are these: at 3 μM, positive control.
Experiment [9] has as its system EV-D68 US/MO/14-18947. The experiment is described as follows: Immunofluorescence assay. The format is cell-based, enterovirus D68. The conditions noted are these: at 50 μM, SH-SY5Y cells, positive control.

With `CC(C)n1ncc2c(C(=O)NCCN3CCCC3)cc(C3CC3)nc21` [7b, 6-cyclopropyl-1-(propan-2-yl)-N-[2-(pyrrolidin-1-yl)ethyl]-1H-pyrazolo[3,4-b]pyridine-4-carboxamide], the “improvement in antiviral efficacy compared to the original hit 7a against EV-D68 virus” value in [1] is reported as “more than 100 fold”.
With `CC(C)n1ncc2c(C(=O)NCCN(C)C)cc(C3CC3)nc21` [7d, 6-cyclopropyl-N-[2-(dimethylamino)ethyl]-1-(propan-2-yl)-1H-pyrazolo[3,4-b]pyridine-4-carboxamide], the “binding to EV-A71 2C protein” value in experiment [2] is “dose-dependent binding”. Moreover, in experiment [3], the “ΔTm, 2C-D183V mutant” value was determined as 0.01 °C. Also, the “improvement in antiviral efficacy compared to the original hit 7a against EV-D68 virus” value in experiment [1] is “more than 100 fold”. In experiment [4], the EC50 lay within 40 to 100 nM. Moreover, in experiment [5], the “ΔTm, 2C-D323G mutant” value came to 3.92 °C. Also, the “binding to CVB3 2C protein” value in experiment [6] is “dose-dependent binding”. Also, in [7], the “ΔTm, 2C-D183V/D323G double mutant” value came out at 0.61 °C.
On to `CC(CN(C)C)NC(=O)c1cc(C2CC2)nc2c1cnn2C(C)C` (stereo not drawn) [7f, 6-cyclopropyl-N-[1-(dimethylamino)propan-2-yl]-1-(propan-2-yl)-1H-pyrazolo[3,4-b]pyridine-4-carboxamide], for which the “improvement in antiviral efficacy compared to the original hit 7a against EV-D68 virus” value in experiment [1] is recorded as “more than 100 fold”.
Consider `CC(C)n1ncc2c(C(=O)NC3CCN(C)C3)cc(C3CC3)nc21` (stereo not drawn) [7g, 6-cyclopropyl-N-(1-methylpyrrolidin-3-yl)-1-(propan-2-yl)-1H-pyrazolo[3,4-b]pyridine-4-carboxamide], for which the “improvement in antiviral efficacy compared to the original hit 7a against EV-D68 virus” value in experiment [1] was “more than 100 fold”.
With `CNCCNC(=O)c1cc(C2CC2)nc2c1cnn2C(C)C` [7h, 6-cyclopropyl-N-[2-(methylamino)ethyl]-1-(propan-2-yl)-1H-pyrazolo[3,4-b]pyridine-4-carboxamide], the “improvement in antiviral efficacy compared to the original hit 7a against EV-D68 virus” value in experiment [1] is reported as “more than 100 fold”. Besides, in experiment [4], the EC50 was in the range of 60 to 300 nM; the “selectivity index over all EV-D68 and EV-A71 strains tested” value was “over 700”.
In the case of `CC(C)c1cc(C(=O)NCCN(C)C)c2cnn(C(C)C)c2n1` [10a, N-[2-(dimethylamino)ethyl]-1,6-bis(propan-2-yl)-1H-pyrazolo[3,4-b]pyridine-4-carboxamide], in experiment [4], the EC50 is 60 to 300 nM; the “selectivity index over all EV-D68 and EV-A71 strains tested” value is recorded as “over 700”.
On to `CCC[C@H](NC(=O)[C@@H]1[C@H]2CCC[C@H]2CN1C(=O)[C@@H](NC(=O)[C@@H](NC(=O)c1cnccn1)C1CCCCC1)C(C)(C)C)C(=O)C(=O)NC1CC1` [Telaprevir], for which, in experiment [8], the “inhibition of plaque formation” value is listed as “complete inhibition of plaque formation”.
As for `Cc1cc(C(=O)NCCN(C)C)c2c(C)nn(C(C)(C)C)c2n1` [compound 19, 1-tert-butyl-N-[2-(dimethylamino)ethyl]-3,6-dimethyl-1H-pyrazolo[3,4-b]pyridine-4-carboxamide], the EC50 in experiment [4] lay within 400 to 7400 nM.
Turning to `Cc1cc(CCCOc2c(C)cc(-c3noc(C(F)(F)F)n3)cc2C)on1` [pleconaril], in experiment [9], the “viral replication (VP1 fluorescence signal)” value is “completely abolished viral replication”.
